“And” between values parts separate entries of the source, which are not always exact repeats. Equal entries are not always repeated. Where two headings read alike, the source gives them in different places. Starred links: 1 amine or outer side, 2 acyl side, 3 side chain; linkers in the order of their positions; H or OH if unused. Non-standard residues stand in square brackets, D forms with d. Residues, ends and D or L forms follow the SMILES beside them. Groups on a side chain read outwards from the residue. *: point of attachment. γGlu = O=C(O)[C@H](CCC(=O)[*:2])N[*:1]; αMeF = C[C@](N)(Cc1ccccc1)C(=O)O; αMeK = C[C@](N)(CCCCN)C(=O)O; Lauroyl = CCCCCCCCCCCC(=O)*; αMeS = C[C@](N)(CO)C(=O)O; AEEA = NCCOCCOCC(=O)O; Aib = CC(C)(N)C(=O)O
Experiments:
Format in all cases: in vivo
[1] = Canine study, MEDI7219 tablets in acid-resistant capsules (Example 13)
Protocol: The formulations tested in this study contained the MEDI7219 (SEQ ID NO:2) peptide, whereas the SEQ ID NO:6 peptide was used in tablet formulations for the previous canine study in Example 12. Tablets were placed in acid-resistant capsules (one tablet/capsule) prior to dosing. […] (Table 20). This formulation contained 0.1 mg/kg MEDI7219 (SEQ ID NO:2) peptide and 300 mg total permeation enhancer (PE) consisting of a 1:2 ratio of sodium chenodeoxycholate to propyl gallate. This ratio worked better compared to a 2:1 ratio of these permeation enhancers (Group 9, Table 20). This study also confirmed the utility of Tris base as a pH stabilizer.

[2] = Canine study, MEDI7219 multi-unit particulate (MUPS) formulations (Example 16); details: Oral capsule, MUPS 9 mg peptide, 88 mg Na CDC, 190 mg PG
Protocol: Ten different Multi-unit particulate (MUPS) formulations were prepared (Table 23) using the MEDI7219 (SEQ ID NO:2) peptide and permeation enhancers. The manufacturing process for the MUPS formulation was as follows. A solution of MEDI7219 (SEQ ID NO:2) peptide, sodium chenodeoxycholate and propyl gallate was prepared in water and sprayed onto sugar spheres in a Glatt Mini fluid bed coater. Following drying, sugar spheres coated with peptide and permeation enhancers were coated to result in the compositions described in Table 23.

[3] = Rat intraduodenal study, MEDI7219 with new permeation enhancer formulations (Example 7); details: for AUC(0-t) / Cmax / Tmax / half-life: plasma; for half-life: read-out: T ½ (converted)
Protocol: The following rat ID study compared oral bioavailability of the MEDI7219 (SEQ ID NO:2) peptide formulated with new permeation enhancer formulations after intraduodenal administration in rats. All test articles were prepared as solutions in 50 mM Tris, 150 mM mannitol, 0.02% polysorbate 80, pH 8.5. Table 8 gives the formulation and pharmacokinetic analysis details.

[4] = Canine study, compositions around 6.5:1 Na CDC:PG ratio in enterically coated tablets (Example 23, Table 30); details: dogs, oral enterically coated tablet
Text: The following materials and methods were used for quantitative measurements of GLP-1 peptide analogs in plasma (e.g., rat or dog plasma) in the Examples below. These methods used a SCIEX 6600 TripleTOF mass spectrometer coupled with a Shimadzu ultra-high performance liquid chromatography (UHPLC). The specificity of the method was ensured by the retention time, the selected mass for Single-Reaction-Monitoring (SRM) mode, and the selected fragment mass in MS/MS (MS^2) mode.
The plasma extraction procedure used the following steps: • Samples, standards, and quality controls were incubated until they reached room temperature. They were then incubated at 60° C. for 2 minutes and cooled down to room temperature, vortexed, and spun down. • 70 μL of samples, standards, or quality controls were transferred into a 1 mL 96-well plate. • In each well, 420 uL of Precipitation Solution was added. The plate was sealed and shook for 10 minutes on a plate shaker at 600 rpm. • The plate was centrifuged at 18G, 2500 RFC, 20° C. for 10 minutes. • The plate was carefully removed, and the upper clear supernatant was extracted with a 200 uL multichannel pipette into a new 96-well protein lobind plate. The supernatant was extracted twice for each well, and the supernatants were combined. • The Plate was placed in TurboVap and the extracted supernatant was dried completely with heated (65° C.) Nitrogen gas at 60 Fahrenheit (Fh). • After the plate was completely dry, the plates were covered and incubated at room temperature for at least 30 minutes until the plate returned back to ambient temperature. • 150 μL of Reconstitution solution was added to each well. The plate was covered with a pierceable place seal and shaken at 600 rpm for 10 minutes. • The samples were submitted to the LC-MS/MS on the same day of Preparation
Quantification of the data obtained using the high resolution SCIEX 6600 instrument was then performed as follows: • For the quantification, extracted ion chromatograms (XIC) using 0.2 Da m/z extraction window centered on the accurate mass of each fragment ion were generated. Accurate mass was calculated from the structure of the compound. […] Concentrations of the target analyte in unknown samples were obtained by regression analysis using linear fits of peak areas vs. analyte concentration, weighted 1/(concentration). • The quality of the assay was controlled by the quality control samples. • Either Experiment 1 or Experiment 2 could be used for the quantification of the GLP-1 peptide analogs in high resolution mode.

[5] = iv, 0.01 mg/kg, IV, 0.01 mg/kg, Group 1 control, 0.01 mg/mL peptide
[6] = other: intraduodenal (ID), 1 mg/kg, ID, 1 mg/kg, Group 2: 0.5 mg/mL peptide, 25 mg/mL Na CDC, 12.5 mg/mL Ethyl Gallate
[7] = other: intraduodenal (ID), 1 mg/kg, ID, 1 mg/kg, Group 3: 0.5 mg/mL peptide, 12.5 mg/mL Na CDC, 25 mg/mL Ethyl Gallate
[8] = other: intraduodenal (ID), 1 mg/kg, ID, 1 mg/kg, Group 4: 0.5 mg/mL peptide, 25 mg/mL Na CDC, 12.5 mg/mL Octyl Gallate
[9] = other: intraduodenal (ID), 1 mg/kg, ID, 1 mg/kg, Group 5: 0.5 mg/mL peptide, 25 mg/mL Chenodeoxycholic acid, 12.5 mg/mL PG
[10] = other: intraduodenal (ID), 1 mg/kg, ID, 1 mg/kg, Group 8: 0.5 mg/mL peptide, 25 mg/mL Na CDC, 12.5 mg/mL PG
[11] = 4:1 ratio, 120 mg Na CDC and 30 mg PG, 3 mg MEDI7219
[12] = 14:1 ratio, 140 mg Na CDC and 10 mg PG, 3 mg MEDI7219
[13] = 29:1 ratio, 145 mg Na CDC and 5 mg PG, 3 mg MEDI7219

CCCCCCCCCCCC(=O)N[C@@H](CCC(=O)NCCOCCOCC(=O)NCCOCCOCC(=O)NCCCC[C@H](NC(=O)[C@H](C)NC(=O)[C@@H](NC(=O)[C@](C)(Cc1ccccc1)NC(=O)[C@H](CCC(=O)O)NC(=O)[C@](C)(CCCCN)NC(=O)[C@H](C)NC(=O)[C@H](C)NC(=O)[C@H](CCC(=O)O)NC(=O)CNC(=O)[C@H](CCC(=O)O)NC(=O)[C@H](CC(C)C)NC(=O)[C@H](CCCCNC(=O)COCCOCCNC(=O)COCCOCCNC(=O)CC[C@H](NC(=O)CCCCCCCCCCC)C(=O)O)NC(=O)[C@H](CO)NC(=O)[C@](C)(CO)NC(=O)[C@@H](NC(=O)[C@H](CC(=O)O)NC(=O)[C@H](CO)NC(=O)[C@@H](NC(=O)[C@](C)(Cc1ccccc1)NC(=O)[C@H](CO)NC(=O)CNC(=O)[C@H](CCC(=O)O)NC(=O)C(C)(C)NC(=O)[C@@H](N)Cc1c[nH]cn1)[C@@H](C)O)C(C)C)[C@@H](C)CC)C(=O)N[C@H](C(=O)N[C@H](C(=O)N[C@@H](CCC(=O)O)C(=O)NCC(=O)NCC(N)=O)C(C)C)C(C)C)C(=O)O [MEDI7219, Free-H-[AIB]-EGS-[αMePhe]-TSDV-[αMeSer]-SK[(PEG2)2-γE-Lauroyl]-LEGEAA-[αMeLys]-E-[αMePhe]-IAK[(PEG2)2-γE-Lauroyl]-VVEGG-amide] (H-H[Aib]EGS[αMeF]TSDV[αMeS]SK([AEEA-AEEA-γGlu-Lauroyl])LEGEAA[αMeK]E[αMeF]IAK([AEEA-AEEA-γGlu-Lauroyl])VVEGG-NH2)
F ([1]; Intravenous, 0.01 mg/kg, 0.1 mg/mL in 50 mM Tris, 150 mM Mannitol, 0.02% Polysorbate 80, pH8.0): 100% | F ([1]; Oral tablet in capsule, Group 8: 1 mg peptide, 100 mg Na CDC, 200 mg PG): 10.7% | F ([1]; Oral tablet in capsule, Group 9: 1 mg peptide, 200 mg Na CDC, 100 mg PG): 5.0% | F ([1]; Oral tablet in capsule, Group 12: 1 mg peptide, 33.3 mg Na CDC, 16.6 mg PG (NO TRIS)): 0% | F ([2]; 10% Carbopol 71G Mucoadhesive polymer + 25% pH 5.5 EC): 0.393% | F ([2]; 10% Carbopol 71G Mucoadhesive polymer + 25% pH 7.0 EC): 0.582% | F ([2]; 10% Polycarbophill AA Mucoadhesive polymer + 25% pH 5.5 EC): 0.124% | F ([2]; 10% Polycarbophill AA Mucoadhesive polymer + 25% pH 7.0 EC): 0.572% | F ([2]; + 10% Eudragit(RL + RS) + 25% pH 5.5 EC): 0.537% | F ([2]; pH 5.5 EC): 1.30% | F ([2]; pH 7.0 EC): 2.54% | F ([3]; ID, 1 mg/kg, Group 2: 0.5 mg/mL peptide, 25 mg/mL Na CDC, 12.5 mg/mL Ethyl Gallate): 1.11% | F ([3]; ID, 1 mg/kg, Group 3: 0.5 mg/mL peptide, 12.5 mg/mL Na CDC, 25 mg/mL Ethyl Gallate): 2.14% | F ([3]; ID, 1 mg/kg, Group 4: 0.5 mg/mL peptide, 25 mg/mL Na CDC, 12.5 mg/mL Octyl Gallate): 1.12% | F ([3]; ID, 1 mg/kg, Group 5: 0.5 mg/mL peptide, 25 mg/mL Chenodeoxycholic acid, 12.5 mg/mL PG, 1 mg/kg): 1.96% and 1.92% | F ([3]; ID, 1 mg/kg, Group 6: 0.5 mg/mL peptide, 25 mg/mL Ursodeoxycholic acid, 12.5 mg/mL PG): 0% | F ([3]; ID, 1 mg/kg, Group 7: 0.5 mg/mL peptide, 25 mg/mL Na CDC, 12.5 mg/mL PG, 25 mg/mL N-Acetyl Cysteine): 0% | F ([3]; ID, 1 mg/kg, Group 8: 0.5 mg/mL peptide, 25 mg/mL Na CDC, 12.5 mg/mL PG): 1.45% | F ([3]; IV, 0.01 mg/kg, Group 1 control, 0.01 mg/mL peptide): 100% | AUC(0-t) [3, 5]: 1030 ng·h/mL | Cmax [3, 5]: 187 ng/mL | Tmax [3, 5]: 0.083 h | half-life [3, 5]: 8.9 h | AUC(0-t) [3, 6]: 1110 ng·h/mL | Cmax [3, 6]: 175 ng/mL | Tmax [3, 6]: 0.25 h | half-life [3, 6]: 10.3 h | AUC(0-t) [3, 7]: 1970 ng·h/mL | Cmax [3, 7]: 282 ng/mL | Tmax [3, 7]: 0.25 h | half-life [3, 7]: 7.96 h | AUC(0-t) [3, 8]: 1170 ng·h/mL | Cmax [3, 8]: 240 ng/mL | Tmax [3, 8]: 0.25 h | half-life [3, 8]: 7.97 h | AUC(0-t) [3, 9]: 1890 ng·h/mL | Cmax [3, 9]: 546 ng/mL | Tmax [3, 9]: 0.25 h | half-life [3, 9]: 8.6 h | AUC(0-t) [3, 10]: 1540 ng·h/mL | Cmax [3, 10]: 140 ng/mL | Tmax [3, 10]: 2 h | half-life [3, 10]: 8.83 h | F [4, 11]: ~5.7% | PK variability (CV) at C max [4, 11]: 52.8% | F [4, 12]: ~4.6% | PK variability at C max [4, 12]: 84.4% | F [4, 13]: ~3.8% | PK variability at C max [4, 13]: 135.3% | F ([4]; No PG formulation, 150 mg Na CDC): ~0.6%
